Laboratory results from ChEMBL document CHEMBL4152229, “Synthesis and biological evaluation of 2,6-disubstituted-9H-purine, 2,4-disubstitued-thieno[3,2-d]pyrimidine and -7H-pyrrolo[2,3-d]pyrimidine analogues as novel CHK1 inhibitors” (Eur J Med Chem, 2018).
pIC50: −log10 of the molar value. Activity calls are given as the source filed them. The rule behind the calls is not given here.

How the values were obtained:
HT-29 [1] = assay: Potentiation of gemcitabine-induced cell cycle arrest in human HT-29 cells assessed as accumulation at G1 phase at 10 uM after 48 hrs by propidium iodide/RNase staining-based flow cytometric analysis (reference value: 62.1%); format: functional
HT-29 [2] = assay: Inhibition of colony formation in human HT-29 cells at <10 uM after 2 weeks by crystal violet staining-based assay; format: functional, cell-based
[3] = biological target: Epidermal growth factor receptor (Homo sapiens) (UniProt P00533); assay: Inhibition of DNA-tagged EGFR (unknown origin) expressed in HEK293 cells at 10 uM after 1 hr by real-time fluorescent quantitative PCR analysis; format: cell-based
Epidermal growth factor receptor (Homo sapiens), sequence (P00533 whole entry): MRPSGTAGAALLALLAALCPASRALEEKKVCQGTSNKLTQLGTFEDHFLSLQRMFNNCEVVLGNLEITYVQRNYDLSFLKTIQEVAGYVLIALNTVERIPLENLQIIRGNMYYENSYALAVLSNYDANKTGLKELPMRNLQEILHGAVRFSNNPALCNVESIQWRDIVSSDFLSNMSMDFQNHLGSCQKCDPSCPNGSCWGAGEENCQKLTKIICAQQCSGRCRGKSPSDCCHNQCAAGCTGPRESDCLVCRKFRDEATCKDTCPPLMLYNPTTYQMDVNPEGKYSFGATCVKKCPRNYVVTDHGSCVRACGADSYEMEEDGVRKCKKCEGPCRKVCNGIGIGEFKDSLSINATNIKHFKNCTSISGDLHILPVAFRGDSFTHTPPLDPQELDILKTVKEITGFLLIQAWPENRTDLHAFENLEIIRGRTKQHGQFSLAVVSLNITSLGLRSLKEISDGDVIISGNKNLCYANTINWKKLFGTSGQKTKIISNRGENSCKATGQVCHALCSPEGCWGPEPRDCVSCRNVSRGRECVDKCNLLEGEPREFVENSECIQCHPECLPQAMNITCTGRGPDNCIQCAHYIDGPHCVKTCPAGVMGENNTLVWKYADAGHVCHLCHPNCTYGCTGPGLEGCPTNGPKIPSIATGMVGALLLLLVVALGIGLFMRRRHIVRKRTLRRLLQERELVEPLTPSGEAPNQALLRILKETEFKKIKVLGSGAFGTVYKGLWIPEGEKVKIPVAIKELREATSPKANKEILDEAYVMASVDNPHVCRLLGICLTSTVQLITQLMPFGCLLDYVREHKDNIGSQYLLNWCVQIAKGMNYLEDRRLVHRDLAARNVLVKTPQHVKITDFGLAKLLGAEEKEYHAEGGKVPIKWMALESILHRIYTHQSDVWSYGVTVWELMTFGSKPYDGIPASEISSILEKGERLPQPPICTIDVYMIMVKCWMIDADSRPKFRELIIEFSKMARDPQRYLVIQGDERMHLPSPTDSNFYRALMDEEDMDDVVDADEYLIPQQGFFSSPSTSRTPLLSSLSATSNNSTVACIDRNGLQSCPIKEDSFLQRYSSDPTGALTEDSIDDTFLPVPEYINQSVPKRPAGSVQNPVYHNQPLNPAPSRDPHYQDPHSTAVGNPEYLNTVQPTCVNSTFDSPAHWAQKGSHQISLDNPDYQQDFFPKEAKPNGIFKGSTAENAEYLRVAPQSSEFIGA

[4] = biological target: Tyrosine-protein kinase BTK (Homo sapiens) (UniProt Q06187); assay: Inhibition of DNA-tagged BTK (unknown origin) expressed in HEK293 cells at 10 uM after 1 hr by real-time fluorescent quantitative PCR analysis; format: cell-based
Tyrosine-protein kinase BTK (Homo sapiens), sequence (Q06187 whole entry): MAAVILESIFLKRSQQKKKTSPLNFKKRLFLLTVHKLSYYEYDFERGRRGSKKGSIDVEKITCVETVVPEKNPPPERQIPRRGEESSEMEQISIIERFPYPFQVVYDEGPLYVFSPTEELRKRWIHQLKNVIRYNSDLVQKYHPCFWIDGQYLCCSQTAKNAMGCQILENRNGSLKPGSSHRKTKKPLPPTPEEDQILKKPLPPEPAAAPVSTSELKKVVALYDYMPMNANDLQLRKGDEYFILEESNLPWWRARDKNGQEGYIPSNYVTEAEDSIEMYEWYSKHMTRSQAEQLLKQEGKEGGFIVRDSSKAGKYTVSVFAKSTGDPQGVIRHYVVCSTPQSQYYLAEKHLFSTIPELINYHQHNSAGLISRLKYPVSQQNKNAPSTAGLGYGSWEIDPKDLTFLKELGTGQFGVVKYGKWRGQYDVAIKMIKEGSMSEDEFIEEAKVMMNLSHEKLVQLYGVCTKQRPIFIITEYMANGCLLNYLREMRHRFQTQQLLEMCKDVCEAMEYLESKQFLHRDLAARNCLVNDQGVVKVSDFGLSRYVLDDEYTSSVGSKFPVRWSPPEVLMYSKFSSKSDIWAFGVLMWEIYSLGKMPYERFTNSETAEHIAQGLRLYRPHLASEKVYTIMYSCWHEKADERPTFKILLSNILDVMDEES

[5] = biological target: ALK tyrosine kinase receptor (Homo sapiens) (UniProt Q9UM73); assay: Inhibition of DNA-tagged ALK (unknown origin) expressed in HEK293 cells at 10 uM after 1 hr by real-time fluorescent quantitative PCR analysis; format: cell-based
ALK tyrosine kinase receptor (Homo sapiens), sequence (Q9UM73 19-1620 limits assumed): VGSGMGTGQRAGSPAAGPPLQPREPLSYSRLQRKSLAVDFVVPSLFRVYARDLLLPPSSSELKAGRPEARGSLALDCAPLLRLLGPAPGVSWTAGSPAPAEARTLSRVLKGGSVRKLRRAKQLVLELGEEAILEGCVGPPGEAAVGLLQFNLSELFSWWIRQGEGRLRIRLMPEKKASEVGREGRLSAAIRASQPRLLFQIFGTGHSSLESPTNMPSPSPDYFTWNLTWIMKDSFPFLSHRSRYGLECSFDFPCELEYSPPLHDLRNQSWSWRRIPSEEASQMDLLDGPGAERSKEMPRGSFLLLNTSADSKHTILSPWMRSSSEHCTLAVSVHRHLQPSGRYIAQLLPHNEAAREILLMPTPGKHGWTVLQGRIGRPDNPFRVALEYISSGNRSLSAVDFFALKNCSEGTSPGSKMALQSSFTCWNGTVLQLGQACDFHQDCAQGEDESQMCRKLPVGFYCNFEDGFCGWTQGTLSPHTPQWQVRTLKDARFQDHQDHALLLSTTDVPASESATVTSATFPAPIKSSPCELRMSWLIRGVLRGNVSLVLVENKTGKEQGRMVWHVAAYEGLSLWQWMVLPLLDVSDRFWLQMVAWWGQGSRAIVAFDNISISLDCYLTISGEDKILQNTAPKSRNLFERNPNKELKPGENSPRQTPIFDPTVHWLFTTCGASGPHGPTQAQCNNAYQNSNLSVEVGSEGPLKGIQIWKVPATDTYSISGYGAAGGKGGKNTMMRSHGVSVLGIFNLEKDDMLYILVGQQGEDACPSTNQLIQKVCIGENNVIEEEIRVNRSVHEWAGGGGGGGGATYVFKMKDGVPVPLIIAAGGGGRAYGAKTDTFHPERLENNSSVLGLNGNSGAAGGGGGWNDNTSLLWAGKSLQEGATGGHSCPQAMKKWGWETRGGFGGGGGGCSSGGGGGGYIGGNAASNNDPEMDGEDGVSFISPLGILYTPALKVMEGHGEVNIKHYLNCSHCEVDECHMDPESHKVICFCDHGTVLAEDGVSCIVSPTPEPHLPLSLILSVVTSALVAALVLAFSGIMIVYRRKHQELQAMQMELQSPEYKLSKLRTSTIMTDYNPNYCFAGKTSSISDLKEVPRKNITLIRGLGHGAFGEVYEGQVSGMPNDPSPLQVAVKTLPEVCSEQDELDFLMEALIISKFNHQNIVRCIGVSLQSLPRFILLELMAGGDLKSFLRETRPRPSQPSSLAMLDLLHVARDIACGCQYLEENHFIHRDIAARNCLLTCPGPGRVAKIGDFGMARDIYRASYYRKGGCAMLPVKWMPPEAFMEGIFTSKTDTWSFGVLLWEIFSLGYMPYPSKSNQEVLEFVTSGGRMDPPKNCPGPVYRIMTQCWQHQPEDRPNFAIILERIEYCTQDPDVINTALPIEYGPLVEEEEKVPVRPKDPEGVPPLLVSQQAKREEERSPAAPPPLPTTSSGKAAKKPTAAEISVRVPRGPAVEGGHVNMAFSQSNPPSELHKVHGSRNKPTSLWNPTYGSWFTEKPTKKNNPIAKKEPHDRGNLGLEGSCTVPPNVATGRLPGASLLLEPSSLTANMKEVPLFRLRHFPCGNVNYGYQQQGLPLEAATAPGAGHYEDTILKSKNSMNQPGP

[6] = biological target: RAC-alpha serine/threonine-protein kinase (Homo sapiens) (UniProt P31749); assay: Inhibition of DNA-tagged AKT1 (unknown origin) expressed in HEK293 cells at 10 uM after 1 hr by real-time fluorescent quantitative PCR analysis; format: cell-based
RAC-alpha serine/threonine-protein kinase (Homo sapiens), sequence (P31749 whole entry): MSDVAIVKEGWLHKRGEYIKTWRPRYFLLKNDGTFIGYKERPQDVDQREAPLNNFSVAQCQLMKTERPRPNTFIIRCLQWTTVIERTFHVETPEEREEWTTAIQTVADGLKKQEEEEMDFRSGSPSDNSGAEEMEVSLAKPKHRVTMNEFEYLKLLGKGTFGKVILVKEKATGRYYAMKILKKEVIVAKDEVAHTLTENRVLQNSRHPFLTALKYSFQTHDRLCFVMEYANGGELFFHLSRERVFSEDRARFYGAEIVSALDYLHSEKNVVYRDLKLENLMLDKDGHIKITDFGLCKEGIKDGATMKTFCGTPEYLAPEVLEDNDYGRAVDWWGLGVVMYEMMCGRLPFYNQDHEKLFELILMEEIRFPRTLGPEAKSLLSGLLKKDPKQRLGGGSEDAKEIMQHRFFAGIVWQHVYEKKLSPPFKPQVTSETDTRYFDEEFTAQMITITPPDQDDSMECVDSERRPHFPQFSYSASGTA

HT-29 [7] = assay: Potentiation of gemcitabine-induced cell cycle arrest in human HT-29 cells assessed as accumulation at S phase at 10 uM after 48 hrs by propidium iodide/RNase staining-based flow cytometric analysis (reference value: 62.1%); format: functional
[8] = biological target: T1, Serine/threonine-protein kinase Chk1 (Homo sapiens, UniProt O14757); assay: Inhibition of CHK1 (unknown origin) using Cdc25 peptide as substrate preincubated for 30 mins followed by substrate addition and measured after 60 mins by ADP-Glo kinase assay
T1 sequence (O14757 whole entry): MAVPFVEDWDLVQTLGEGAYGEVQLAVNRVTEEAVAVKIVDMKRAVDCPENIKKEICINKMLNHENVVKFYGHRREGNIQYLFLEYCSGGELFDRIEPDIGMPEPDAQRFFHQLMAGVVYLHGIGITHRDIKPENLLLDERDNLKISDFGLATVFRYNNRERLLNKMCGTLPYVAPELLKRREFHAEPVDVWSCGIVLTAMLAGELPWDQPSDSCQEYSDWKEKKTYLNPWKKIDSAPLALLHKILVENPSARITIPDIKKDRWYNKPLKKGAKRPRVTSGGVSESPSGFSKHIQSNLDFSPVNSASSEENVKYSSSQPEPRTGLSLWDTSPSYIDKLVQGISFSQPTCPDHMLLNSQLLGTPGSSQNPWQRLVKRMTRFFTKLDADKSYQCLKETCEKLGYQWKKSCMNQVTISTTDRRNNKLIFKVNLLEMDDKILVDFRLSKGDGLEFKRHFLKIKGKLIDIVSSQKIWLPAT

[9] = biological target: T2, Serine/threonine-protein kinase Chk1 (Homo sapiens) (UniProt O14757); assay: Inhibition of CHK1 (unknown origin) at 10 uM using Cdc25 peptide as substrate preincubated for 30 mins followed by substrate addition and measured after 60 mins by ADP-Glo kinase assay
T2 sequence (whole entry): T1 sequence (O14757 whole entry)

HT-29 [10] = assay: Potentiation of gemcitabine-induced cell cycle arrest in human HT-29 cells assessed as accumulation at G2 phase at 10 uM after 48 hrs by propidium iodide/RNase staining-based flow cytometric analysis (reference value: 62.1%); format: functional
[11] = biological target: T3, Serine/threonine-protein kinase 3 (Homo sapiens) (UniProt Q13188); assay: Inhibition of DNA-tagged STK3 (unknown origin) expressed in HEK293 cells at 10 uM after 1 hr by real-time fluorescent quantitative PCR analysis; format: cell-based
T3 sequence (whole entry): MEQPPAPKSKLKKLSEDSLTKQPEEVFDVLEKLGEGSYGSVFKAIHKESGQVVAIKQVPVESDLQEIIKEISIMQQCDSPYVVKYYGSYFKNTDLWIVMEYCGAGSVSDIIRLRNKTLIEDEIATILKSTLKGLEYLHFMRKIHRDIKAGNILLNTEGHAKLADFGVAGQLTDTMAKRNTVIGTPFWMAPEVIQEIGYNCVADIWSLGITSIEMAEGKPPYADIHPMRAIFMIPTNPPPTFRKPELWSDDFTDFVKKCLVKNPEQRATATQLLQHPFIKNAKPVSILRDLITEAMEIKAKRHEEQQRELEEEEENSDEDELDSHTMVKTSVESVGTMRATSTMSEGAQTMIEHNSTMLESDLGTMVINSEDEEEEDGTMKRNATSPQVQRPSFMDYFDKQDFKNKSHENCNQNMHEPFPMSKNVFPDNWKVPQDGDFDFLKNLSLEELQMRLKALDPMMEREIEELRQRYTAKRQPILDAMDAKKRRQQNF

[12] = biological target: T4, Ephrin type-B receptor 4 (Homo sapiens) (UniProt P54760); assay: Inhibition of DNA-tagged EPHB4 (unknown origin) expressed in HEK293 cells at 10 uM after 1 hr by real-time fluorescent quantitative PCR analysis; format: cell-based
T4 sequence (whole entry): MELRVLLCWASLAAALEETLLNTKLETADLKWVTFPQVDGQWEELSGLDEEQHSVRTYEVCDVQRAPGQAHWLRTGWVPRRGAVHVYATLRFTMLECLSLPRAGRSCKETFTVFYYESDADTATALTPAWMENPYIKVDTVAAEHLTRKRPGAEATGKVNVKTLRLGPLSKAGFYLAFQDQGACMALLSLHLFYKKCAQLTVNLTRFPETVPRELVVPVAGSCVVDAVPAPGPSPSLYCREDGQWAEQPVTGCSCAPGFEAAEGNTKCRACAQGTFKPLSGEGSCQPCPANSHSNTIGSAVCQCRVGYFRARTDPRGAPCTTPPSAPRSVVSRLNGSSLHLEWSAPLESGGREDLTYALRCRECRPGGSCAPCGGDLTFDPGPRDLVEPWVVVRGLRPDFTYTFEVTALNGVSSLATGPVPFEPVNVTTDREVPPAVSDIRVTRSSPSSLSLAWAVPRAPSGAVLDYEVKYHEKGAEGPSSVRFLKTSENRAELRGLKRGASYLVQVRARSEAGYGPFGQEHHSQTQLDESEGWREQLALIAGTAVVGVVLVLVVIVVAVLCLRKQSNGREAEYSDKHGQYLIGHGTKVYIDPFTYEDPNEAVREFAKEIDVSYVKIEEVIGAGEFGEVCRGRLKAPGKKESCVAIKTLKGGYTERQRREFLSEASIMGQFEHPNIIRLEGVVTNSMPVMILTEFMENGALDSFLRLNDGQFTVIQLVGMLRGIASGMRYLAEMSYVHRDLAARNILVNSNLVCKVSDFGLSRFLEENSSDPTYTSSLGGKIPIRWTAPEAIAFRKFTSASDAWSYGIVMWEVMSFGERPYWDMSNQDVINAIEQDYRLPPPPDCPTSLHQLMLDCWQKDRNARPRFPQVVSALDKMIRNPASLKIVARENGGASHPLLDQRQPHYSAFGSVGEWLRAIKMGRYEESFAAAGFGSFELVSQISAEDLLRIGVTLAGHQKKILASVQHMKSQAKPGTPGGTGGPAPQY

## Fc1ccc(Nc2nc(N3CCOCC3)c3nc[nH]c3n2)cc1
HT-29 [1]
  Activity: 13.8%
HT-29 [2]
  inhibition: inactive
[3]
  inhibition: 0%
[4]
  inhibition: 35%
[5]
  inhibition: 1%
[6]
  inhibition: 0%
HT-29 [7]
  Activity: 61%
[8]
  pIC50: 6.16
[9]
  inhibition: 89.9%
HT-29 [10]
  Activity: 25.2%
[11]
  inhibition: 44%
[12]
  inhibition: 23%
